Assay results reported in patent publication US12251387B2, “Substituted quinoxalines and benzo[c][1,2,5]oxadiazoles as DNA-PK inhibitors” (Vertex Pharmaceuticals Incorporated, priority 2013, dated 2025).

What follows are molecules tested against DNA-PK (Homo sapiens, UniProt P78527) (assay: DNA-PK Inhibition Assay (standard radiometric kinase assay, 33P-ATP, peptide substrate)). Conditions: radiometric assay, approximately 6 nM DNA-PK, 100 μM ATP, 45 min; fit to competitive tight-binding inhibition; read-out: Ki for the inhibition of DNA-PK.
Type: biochemical
Method in brief: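 Radiometric transfer of 33P from ATP (100 μM) to peptide substrate (0.8 mg/mL) by about 6 nM DNA-PK with 10 μg/mL sheared dsDNA, pH 7.5 HEPES/MgCl2, 45 min, phosphoric acid quench, filter capture and scintillation counting. Ki fitted to a competitive tight-binding inhibition model.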

| Ki [nM] | Compound |
| --- | --- |
| < 100 | c1cnc2c(O[C@H]3CC[C@@H](Nc4ncc(CN5CCOCC5)cn4)CC3)cc(N3CCOCC3)cc2n1 [Compound 530] |
| < 100 | Fc1cncnc1N[C@H]1CC[C@@H](Oc2cc(N3CCOCC3)cc3nccnc23)CC1 [Compound 531] |
| < 100 | Clc1ccnc(N[C@H]2CC[C@@H](Oc3cc(N4CCOCC4)cc4nccnc34)CC2)n1 [Compound 532] |
| < 100 | Clc1nccc(N[C@H]2CC[C@@H](Oc3cc(N4CCOCC4)cc4nccnc34)CC2)n1 [Compound 533] |
| < 100 | c1cc(N[C@H]2CC[C@@H](Oc3cc(N4CCOCC4)cc4nccnc34)CC2)nc(N2CCOCC2)n1 [Compound 534] |
| < 100 | CN1CCN(c2nccc(N[C@H]3CC[C@@H](Oc4cc(N5CCOCC5)cc5nccnc45)CC3)n2)CC1 [Compound 535] |
| < 100 | Cc1cc(N[C@H]2CC[C@@H](Oc3cc(N4CCOCC4)cc4nccnc34)CC2)n2ncnc2n1 [Compound 536] |
| < 100 | CN1CCN(c2cc(N[C@H]3CC[C@@H](Oc4cc(N5CCOCC5)cc5nccnc45)CC3)ncn2)CC1 [Compound 537] |
| < 100 | Clc1cc2nccn2c(N[C@H]2CC[C@@H](Oc3cc(N4CCOCC4)cc4nccnc34)CC2)n1 [Compound 538] |
| < 100 | COCCOc1cc(N[C@H]2CC[C@@H](Oc3cc(N4CCOCC4)cc4nccnc34)CC2)ncn1 [Compound 539] |
| < 100 | c1cnc2c(O[C@H]3CC[C@@H](Nc4cc5[nH]ccc5cn4)CC3)cc(N3CCOCC3)cc2n1 [Compound 540] |
| < 100 | c1cc2ncnn2c(N[C@H]2CC[C@@H](Oc3cc(N4CCOCC4)cc4nccnc34)CC2)n1 [Compound 542] |
| < 100 | Cc1cnc2c(O[C@H]3CC[C@@H](Nc4ncc(C5CCN(C)CC5)cn4)CC3)cc(N3CCOCC3)cc2n1 [Compound 543] |
| < 100 | Cc1cnc2cc(N3CCOCC3)cc(O[C@H]3CC[C@@H](Nc4ncc(C5CCN(C)CC5)cn4)CC3)c2n1 [Compound 544] |
| < 100 | Cn1ncc2c(N[C@H]3CC[C@@H](Oc4cc(N5CCOCC5)cc5nccnc45)CC3)ncnc21 [Compound 545] |
| < 100 | Cn1cnc2c(N[C@H]3CC[C@@H](Oc4cc(N5CCOCC5)cc5nccnc45)CC3)ncnc21 [Compound 546] |
| < 100 | CN1CCN(c2ccnc(N[C@H]3CC[C@@H](Oc4cc(N5CCOCC5)cc5nccnc45)CC3)n2)CC1 [Compound 547] |
| < 100 | c1cc(N2CCOCC2)nc(N[C@H]2CC[C@@H](Oc3cc(N4CCOCC4)cc4nccnc34)CC2)n1 [Compound 548] |
| < 100 | CN1CCC(c2ccnc(N[C@H]3CC[C@@H](Oc4cc(N5CCOCC5)cc5nccnc45)CC3)n2)CC1 [Compound 549] |
| < 100 | CC1(C)CC(c2cnc(N[C@H]3CC[C@@H](Oc4cc(N5CCOCC5)cc5nccnc45)CC3)nc2)CC(C)(C)N1 [Compound 550] |
| < 100 | c1cc(C2CCNCC2)nc(N[C@H]2CC[C@@H](Oc3cc(N4CCOCC4)cc4nccnc34)CC2)n1 [Compound 551] |
| < 100 | O=C1Cc2cnc(N[C@H]3CC[C@@H](Oc4cc(N5CCOCC5)cc5nccnc45)CC3)nc2N1 [Compound 552] |
| < 100 | COc1cc(N[C@H]2CC[C@@H](Oc3cc(N4CCOCC4)cc4nccnc34)CC2)nc(N(C)C)n1 [Compound 553] |
| < 100 | CN1CCc2cnc(N[C@H]3CC[C@@H](Oc4cc(N5CCOCC5)cc5nccnc45)CC3)nc2C1 [Compound 556] |

| Ki [nM] | Compound |
| --- | --- |
| < 100 | CC(C)(C)OC(=O)N1CCC(c2ccnc(N[C@H]3CC[C@@H](Oc4cc(N5CCOCC5)cc5nccnc45)CC3)n2)CC1 [Compound 557] |
| < 100 | COCCOc1ccnc(N[C@H]2CC[C@@H](Oc3cc(N4CCOCC4)cc4nccnc34)CC2)n1 [Compound 558] |
| < 100 | CN(C)CCOc1ccnc(N[C@H]2CC[C@@H](Oc3cc(N4CCOCC4)cc4nccnc34)CC2)n1 [Compound 559] |
| < 100 | c1cc(OCCN2CCOCC2)nc(N[C@H]2CC[C@@H](Oc3cc(N4CCOCC4)cc4nccnc34)CC2)n1 [Compound 560] |
| < 100 | CN1CCN(CCOc2cc(N[C@H]3CC[C@@H](Oc4cc(N5CCOCC5)cc5nccnc45)CC3)ncn2)CC1 [Compound 562] |
| < 100 | c1cnc2c(O[C@H]3CC[C@@H](Nc4ncc5occc5n4)CC3)cc(N3CCOCC3)cc2n1 [Compound 563] |
| < 100 | c1nc(N[C@H]2CC[C@@H](Oc3cc(N4CCOCC4)cc4nccnc34)CC2)cc(-c2nnco2)n1 [Compound 566] |
| < 100 | CN1CCC(c2cnc(N[C@H]3CC[C@@H](Oc4cc(N5CCOCC5)cc5nccnc45)CC3)nc2)C1 (some centres unmarked) [Compound 568] |
| < 100 | c1cnc2c(O[C@H]3CC[C@@H](Nc4ncc(C5CCNC5)cn4)CC3)cc(N3CCOCC3)cc2n1 (some centres unmarked) [Compound 569] |
| < 100 | CC(C)(C)OC(=O)N1CCC(c2cnc(N[C@H]3CC[C@@H](Oc4cc(N5CCOCC5)cc5nccnc45)CC3)nc2)C1 (some centres unmarked) [Compound 570] |
| < 100 | CC1(C)OCc2cc(N[C@H]3CC[C@@H](Oc4cc(N5CCOCC5)cc5nccnc45)CC3)cnc21 [Compound 571] |
| < 100 | FC(F)Oc1ccc(N[C@H]2CC[C@@H](Oc3cc(N4CCOCC4)cc4nccnc34)CC2)nc1 [Compound 572] |
| < 100 | CC(C)(O)c1ccnc(N[C@H]2CC[C@@H](Oc3cc(N4CCOCC4)cc4nccnc34)CC2)c1 [Compound 573] |
| < 100 | COc1ncc(N[C@H]2CC[C@@H](Oc3cc(N4CCOCC4)cc4nccnc34)CC2)cn1 [Compound 574] |
| < 100 | c1ncc(N[C@H]2CC[C@@H](Oc3cc(N4CCOCC4)cc4nccnc34)CC2)cn1 [Compound 575] |
| < 100 | OCc1cnc(N[C@H]2CC[C@@H](Oc3cc(N4CCOCC4)cc4nccnc34)CC2)cn1 [Compound 577] |
| < 100 | Cn1nc(N[C@H]2CC[C@@H](Oc3cc(N4CCOCC4)cc4nccnc34)CC2)ccc1=O [Compound 578] |
| < 100 | CN1CCN(c2cnc(N[C@H]3CC[C@@H](Oc4cc(N5CCOCC5)cc5nccnc45)CC3)nc2)CC1 [Compound 579] |
| < 100 | c1cc(N[C@H]2CC[C@@H](Oc3cc(N4CCOCC4)cc4nccnc34)CC2)n2nccc2c1 [Compound 580] |
| < 100 | c1cc(N[C@H]2CC[C@@H](Oc3cc(N4CCOCC4)cc4nccnc34)CC2)n2ncnc2c1 [Compound 581] |
| < 100 | COCc1ccnc(N[C@H]2CC[C@@H](Oc3cc(N4CCOCC4)cc4nccnc34)CC2)c1 [Compound 582] |
| < 100 | COc1ccc(N[C@H]2CC[C@@H](Oc3cc(N4CCOCC4)cc4nccnc34)CC2)nc1OC [Compound 583] |
| < 100 | OCc1cccnc1N[C@H]1CC[C@@H](Oc2cc(N3CCOCC3)cc3nccnc23)CC1 [Compound 584] |
| < 100 | c1cnc2c(O[C@H]3CC[C@@H](Nc4ncc(OCCN5CCOCC5)cn4)CC3)cc(N3CCOCC3)cc2n1 [Compound 585] |

| Ki [nM] | Compound |
| --- | --- |
| < 100 | Cc1cccnc1N[C@H]1CC[C@@H](Oc2cc(N3CCOCC3)cc3nccnc23)CC1 [Compound 586] |
| < 100 | FC(F)(F)c1cccc(N[C@H]2CC[C@@H](Oc3cc(N4CCOCC4)cc4nccnc34)CC2)n1 [Compound 587] |
| < 100 | CCOc1cccc(N[C@H]2CC[C@@H](Oc3cc(N4CCOCC4)cc4nccnc34)CC2)n1 [Compound 588] |
| < 100 | FC(F)(F)c1ccnc(N[C@H]2CC[C@@H](Oc3cc(N4CCOCC4)cc4nccnc34)CC2)c1 [Compound 589] |
| < 100 | c1cc(N[C@H]2CC[C@@H](Oc3cc(N4CCOCC4)cc4nccnc34)CC2)nc(N2CCOCC2)c1 [Compound 590] |
| < 100 | Fc1cccnc1N[C@H]1CC[C@@H](Oc2cc(N3CCOCC3)cc3nccnc23)CC1 [Compound 591] |
| < 100 | COc1cccnc1N[C@H]1CC[C@@H](Oc2cc(N3CCOCC3)cc3nccnc23)CC1 [Compound 592] |
| < 100 | FC(F)(F)c1cccnc1N[C@H]1CC[C@@H](Oc2cc(N3CCOCC3)cc3nccnc23)CC1 [Compound 593] |
| < 100 | Fc1cnc(N[C@H]2CC[C@@H](Oc3cc(N4CCOCC4)cc4nccnc34)CC2)c(F)c1 [Compound 594] |
| < 100 | Cc1cnc(N[C@H]2CC[C@@H](Oc3cc(N4CCOCC4)cc4nccnc34)CC2)c(C)c1 [Compound 595] |
| < 100 | Cc1cc2nc(N[C@H]3CC[C@@H](Oc4cc(N5CCOCC5)cc5nccnc45)CC3)cc(=O)n2o1 [Compound 596] |
| < 100 | CCc1cc(N[C@H]2CC[C@@H](Oc3cc(N4CCOCC4)cc4nccnc34)CC2)nc(C)n1 [Compound 597] |
| < 100 | CN(C)c1ccc(N[C@H]2CC[C@@H](Oc3cc(N4CCOCC4)cc4nccnc34)CC2)nn1 [Compound 598] |
| < 100 | Cc1cc(N[C@H]2CC[C@@H](Oc3cc(N4CCOCC4)cc4nccnc34)CC2)n[nH]c1=O [Compound 599] |
| < 100 | Oc1nc(N[C@H]2CC[C@@H](Oc3cc(N4CCOCC4)cc4nccnc34)CC2)nc(C2CC2)n1 [Compound 600] |
| < 100 | c1cnc2c(O[C@H]3CC[C@@H](Nc4ccc(C5CCC5)nn4)CC3)cc(N3CCOCC3)cc2n1 [Compound 601] |
| < 100 | Cc1nc(N[C@H]2CC[C@@H](Oc3cc(N4CCOCC4)cc4nccnc34)CC2)cc(N(C)C)n1 [Compound 602] |
| < 100 | CN(C)c1cc(N[C@H]2CC[C@@H](Oc3cc(N4CCOCC4)cc4nccnc34)CC2)ncn1 [Compound 603] |
| < 100 | Clc1cc(N[C@H]2CC[C@@H](Oc3cc(N4CCOCC4)cc4nccnc34)CC2)nc(C2CC2)n1 [Compound 605] |
| < 100 | NC(=O)c1cnc2cc(N3CCOCC3)cc(O[C@H]3CC[C@@H](Nc4ncccn4)CC3)c2n1 [Compound 606] |
| < 100 | COc1nc(N[C@H]2CC[C@@H](Oc3cc(N4CCOCC4)cc4nccnc34)CC2)nc(OC)n1 [Compound 608] |
| < 100 | COc1nc(Cl)nc(N[C@H]2CC[C@@H](Oc3cc(N4CCOCC4)cc4nccnc34)CC2)n1 [Compound 609] |
| < 100 | OC1(c2cnc(N[C@H]3CC[C@@H](Oc4cc(N5CCOCC5)cc5nccnc45)CC3)nc2)COC1 [Compound 610] |
